From patent publication US12458621B1, “Application of genipin beta-methyl derivative gen-17 in preparation of drug for prevention and treatment of acute severe pneumonia” (KUNMING MEDICAL UNIVERSITY, priority 2024, dated 2025)

How the values were obtained:
Format in all cases: in vivo, Kunming mice
Nrf2 = Nrf2 protein in lung tissue by WB
Protocol: The dosage is converted according to the weight of the mice, and the gavage volume is 20 milliliters per kilogram (mL/kg), and the gavage is continued for 3 days. One hour after the gavage on the third day, the ALI model is established by tracheal instillation of LPS solution. […] After the mice are awake, they are raised as usual. 2.3 Treatment of Experimental Animals and Collection of Lung Tissue Specimens
(§1) Samples are collected 24 hours after the animal model is established. The mice are weighed and 12 mice in each group are sacrificed. Lung tissues are collected and the whole lung wet weight is measured. […] After tidying, the lungs are photographed, excess tissues such as the trachea are cleared away, and the wet weight of the whole lung is measured to calculate the lung index. • (3) The upper lobe of the left lung is fixed in 4% neutral paraformaldehyde, fixed for 24 hours, paraffin-embedded and sectioned for HE staining. • (4) The remaining lung tissues are put into centrifugal tubes separately, quickly frozen in liquid nitrogen, and then stored at −80° C. after the experiment, which is used for the detection of MDA, SOD, western blotting (WB) and reverse transcription polymerase chain reaction (RT-PCR). […]
The lung tissue is taken out from −80° C., and its weight is accurately measured. […]

TNF-α = TNF-α mRNA in lung tissue by qRT-PCR
Protocol: (§2) A total of 144 SPF-grade healthy Kunming mice, aged 5-7 weeks and weighing 18-22 g, are weighed and randomly allocated into six experimental groups: control group (NS), model group (LPS), dexamethasone group (DEX, […] per kilogram abbreviated as mg/kg), genipin beta-methyl derivative low-dose group (12.5 mg/kg), genipin beta-methyl derivative medium-dose group (25 mg/kg), and genipin beta-methyl derivative high-dose group (50 mg/kg), 24 animals per group, in which 12 animals are used to take lung tissue for the detection of other indicators, and another 12 animals are used to collect BALF. […]
as §1, with “The mice are weighed and 12 mice in each group are sacrificed.” left out

IkB-α = IkB-α mRNA in lung tissue by qRT-PCR; details: Gen-17 (12.5, 25, 50 mg/kg gavage) compared with LPS group (P<0.001)
Protocol: as §2
as §1, with “The mice are weighed and 12 mice in each group are sacrificed.” left out

HO-1 = HO-1 protein in lung tissue by WB; details: Gen-17 12.5, 25, 50 mg/kg gavage, ALI mice
Protocol: as §2
as §1, with “The mice are weighed and 12 mice in each group are sacrificed.” left out

IL-6 = IL-6 mRNA in lung tissue by qRT-PCR
Protocol: as §2
as §1, with “The mice are weighed and 12 mice in each group are sacrificed.” left out

[1] = system: ERK phosphorylated protein; test: ERK phosphorylated protein in lung tissue by WB
Protocol: as §2
as §1, with “The mice are weighed and 12 mice in each group are sacrificed.” left out

IKKα/β = IKKα/β mRNA in lung tissue by qRT-PCR; details: Gen-17 (12.5, 25, 50 mg/kg gavage) compared with LPS group (P<0.001)
Protocol: as §2
as §1, with “The mice are weighed and 12 mice in each group are sacrificed.” left out

LPS-induced ALI mice = test: Total cell count in BALF
Protocol: A total of 144 SPF-grade healthy Kunming mice, aged 5-7 weeks and weighing 18-22 g, are weighed and randomly allocated into six experimental groups: control group (NS), model group (LPS), dexamethasone group (DEX, […] per kilogram abbreviated as mg/kg), genipin beta-methyl derivative low-dose group (12.5 mg/kg), genipin beta-methyl derivative medium-dose group (25 mg/kg), and genipin beta-methyl derivative high-dose group (50 mg/kg), 24 animals per group, in which 12 animals are used to take lung tissue for the detection of other indicators, and another 12 animals are used to collect BALF.
All mice are gavaged with a same volume of 0.9% normal saline once a day in the NS group and the LPS group, DEX solution (0.39 mg/kg) is gavaged once a day in the DEX group, low-dose Gen-17 solution (12.5 mg/kg) is gavaged once a day in the medium-dose Gen-17 group, medium-dose Gen-17 solution (25 mg/kg) is gavaged once a day in the high-dose Gen-17 group, and high-dose Gen-17 solution (50 mg/kg) is gavaged once a day in the high-dose Gen-17 group. The dosage is converted according to the weight of the mice, and the gavage volume is 20 milliliters per kilogram (mL/kg), and the gavage is continued for 3 days. One hour after the gavage on the third day, the ALI model is established by tracheal instillation of LPS solution. The specific experimental procedures are as follows. • (1) Before the operation, the mice are anesthetized by intraperitoneal injection of 1% sodium pentobarbital (30 mg/kg) according to their body weight. • (2) Limbs of anesthetized mice are fixed with rubber bands, teeth are wired with thin threads, and neck skin is disinfected with 75% alcohol. • (3) A subcutaneous tissue is separated along a longitudinal incision in a middle of the mouse neck until a cartilage ring appeared in an exposed trachea. • (4) A microinjector is inserted into the trachea in parallel towards a proximal end for about 1 centimeter (cm). Sterile NS is slowly dripped into the trachea of the control group, and LPS is dripped into the trachea of the other groups. • (5) After pulling out the microinjector, the mice are upright immediately, rotated and shaken evenly for 2 minutes (min), then the neck wound is sutured, and the state of the mice is observed. After the mice are awake, they are raised as usual. 2.3 Treatment of Experimental Animals and Collection of Lung Tissue Specimens
BALF is collected 24 hours after the establishment of the animal model. First, the remaining 12 mice in each group are weighed, and then BALF is extracted. The extracted BALF is used for total cell count, total protein content determination and enzyme-linked immunosorbent assay (ELISA) determination of IL-1B, IL-6 and TNF-α in BALF. The specific experimental procedures are as follows. • (1) After weighing, the mice are anesthetized by intraperitoneal injection of pentobarbital sodium according to their weight; • (2) When the tail root, hind limbs, eyelash reflex and other activities of mice disappear, and the mice breathe slowly and evenly, the limbs and teeth of mice are fixed, the neck skin of mice is disinfected with 75% alcohol, and the neck tissue is opened longitudinally, so that the tracheal cartilage ring is exposed. Tracheal puncture is performed with a 19G trocar catheter, the needle is inserted for about 1 cm, the needle core is pulled out, a 1 ml syringe is connected, and precooled normal saline (0.8 mL/time, repeat 2 times) is slowly injected. […]

[2] = system: JNK phosphorylated protein; test: JNK phosphorylated protein in lung tissue by WB
Protocol: as §2
as §1, with “The mice are weighed and 12 mice in each group are sacrificed.” left out

[3] = Gen-17 (12.5, 25, 50 mg/kg gavage) compared with LPS group (P<0.001)
[4] = low-dose Gen-17 12.5 mg/kg gavage, compared with DEX group (P<0.001)
[5] = after drug treatment, compared with LPS group
[6] = low-dose Gen-17 12.5 mg/kg gavage, compared with DEX group

For COC(=O)C1=CO[C@@H](OC)[C@@H]2C(COC(=O)c3cccc(Br)c3)=CC[C@H]12 [Gen-17, genipin beta-methyl derivative], the “expression of Nrf2 protein in lung tissue, overall result” value (Nrf2; Gen-17 12.5, 25, 50 mg/kg gavage, ALI mice) was “upregulate the expression of Nrf2 and HO-1 protein”, the “expression of Nrf2 protein in lung tissue (increase)” value (Nrf2; medium-dose Gen-17 25 mg/kg gavage, compared with LPS group (P<0.05)) was “statistically significant” and the “mRNA expression of TNF-α in lung tissue” value (TNF-α; [3]) was “significantly reduce the expression”. The “mRNA expression of TNF-α in lung tissue” value (TNF-α; [4]) was “statistical significance”, the “mRNA expression of IkB-α in lung tissue” value (IkB-α) was “significantly reduce the expression” and the “expression of HO-1 protein in lung tissue, overall result” value (HO-1) was “upregulate the expression of Nrf2 and HO-1 protein”. The “mRNA expression of IL-6 in lung tissue” value (IL-6; [3]) was “significantly reduce the expression”, the “mRNA expression of IL-6 in lung tissue” value (IL-6; [4]) was “statistical significance” and the “expression of ERK phosphorylated protein in lung tissue” value [1, 5] was “down-regulate the expression of p38, ERK and JNK proteins”. The “expression of ERK phosphorylated protein in lung tissue” value [1, 6] was “statistically significant (P<0.05)”, the “mRNA expression of IKKα/β in lung tissue” value (IKKα/β) was “significantly reduce the expression” and the “total cell counts in BALF” value (LPS-induced ALI mice; Gen-17 groups (12.5, 25, 50 mg/kg gavage) compared with LPS group (P<0.001)) was “decreased significantly”. The “total cell counts in BALF” value (LPS-induced ALI mice; low-dose Gen-17 12.5 mg/kg gavage, compared with DEX group (P<0.01)) was “significantly increased”, the “total cell counts in BALF” value (LPS-induced ALI mice; low-dose Gen-17 12.5 mg/kg gavage, compared with NS group (P<0.001)) was “significantly increased” and the “total cell counts in BALF” value (LPS-induced ALI mice; middle-dose Gen-17 25 mg/kg gavage, compared with DEX group (P<0.01)) was “significantly increased”. The “total cell counts in BALF” value (LPS-induced ALI mice; middle-dose Gen-17 25 mg/kg gavage, compared with NS group (P<0.001)) was “significantly increased”, the “expression of JNK phosphorylated protein in lung tissue” value [2, 5] was “down-regulate the expression of p38, ERK and JNK proteins” and the “expression of JNK phosphorylated protein in lung tissue” value [2, 6] was “statistically significant (P<0.05)”.
